The values below come from patent US20250215030A1, “STAT MODULATORS AND USES THEREOF” (Recludix Pharma, Inc., priority 2022, published 2025).

Usually pIC50 stands for −log10 of the IC50, conventionally taken in molar units.

Assay [1] concerns the target T1, Recombinant STAT3 protein (STAT3(G127-I722)) (Homo sapiens, UniProt P40763).
T1 construct: STAT3(G127-I722)
The assay can be described thus: STAT3 Fluorescence Polarization (FP) Assay. The conditions noted are these: STAT3(G127-I722) 25 nM, probe 5-FAM-GpYLPQTV-NH2 2 nM, 45-minute incubation. It is filed as binding. Summed up: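 Serially diluted compounds (1% DMSO) were mixed with 2 nM fluorescent phosphotyrosine peptide and 25 nM STAT3 construct G127-I722, pH 7.4, incubated 45 min at room temperature. IC50 values from fitted polarization curves are reported as categories A (≤100 nM), B, C, D (>10 μM).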
(In general: Polarisation of emitted light reports the rotation of a fluorescent probe.)

The target in assay [2] is T2, Recombinant STAT6 protein (STAT6(W123-T658)) (Homo sapiens, UniProt P42226).
T2 construct: STAT6(W123-T658)
T2 sequence (P42226 123-658): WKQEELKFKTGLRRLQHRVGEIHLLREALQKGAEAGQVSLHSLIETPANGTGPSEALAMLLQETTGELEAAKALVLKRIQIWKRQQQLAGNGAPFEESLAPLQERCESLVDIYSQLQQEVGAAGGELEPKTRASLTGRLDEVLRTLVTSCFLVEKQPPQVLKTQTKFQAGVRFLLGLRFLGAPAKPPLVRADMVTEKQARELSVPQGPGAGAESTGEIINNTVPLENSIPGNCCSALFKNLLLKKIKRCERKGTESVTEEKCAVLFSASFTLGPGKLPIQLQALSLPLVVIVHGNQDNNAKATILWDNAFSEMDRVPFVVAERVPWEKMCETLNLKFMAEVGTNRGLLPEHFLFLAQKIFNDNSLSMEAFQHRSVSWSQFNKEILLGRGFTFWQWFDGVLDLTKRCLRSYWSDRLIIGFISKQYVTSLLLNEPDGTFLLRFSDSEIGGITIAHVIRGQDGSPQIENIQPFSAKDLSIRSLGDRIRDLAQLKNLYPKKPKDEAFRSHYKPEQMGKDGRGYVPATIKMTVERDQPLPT
The assay can be described thus: STAT6 Fluorescence Polarization (FP) Assay. It is filed as binding. The following applies: STAT6(W123-T658) 250 nM, probe 5-FAM-ApYKPFQDLI-NH2 2 nM, 45-minute incubation. Summed up: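 Competitive displacement of a fluorescent phosphotyrosine peptide (2 nM) from recombinant STAT6 W123-T658 (250 nM), 45 min at room temperature in 10 mM HEPES pH 7.4, 50 mM NaCl, 2 mM DTT. mP fitted against log compound for IC50, grouped A (≤300 nM) to D (>30 μM).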

pIC50: −log10 of the molar value.

T1 sequence (P40763 127-722, species assumed): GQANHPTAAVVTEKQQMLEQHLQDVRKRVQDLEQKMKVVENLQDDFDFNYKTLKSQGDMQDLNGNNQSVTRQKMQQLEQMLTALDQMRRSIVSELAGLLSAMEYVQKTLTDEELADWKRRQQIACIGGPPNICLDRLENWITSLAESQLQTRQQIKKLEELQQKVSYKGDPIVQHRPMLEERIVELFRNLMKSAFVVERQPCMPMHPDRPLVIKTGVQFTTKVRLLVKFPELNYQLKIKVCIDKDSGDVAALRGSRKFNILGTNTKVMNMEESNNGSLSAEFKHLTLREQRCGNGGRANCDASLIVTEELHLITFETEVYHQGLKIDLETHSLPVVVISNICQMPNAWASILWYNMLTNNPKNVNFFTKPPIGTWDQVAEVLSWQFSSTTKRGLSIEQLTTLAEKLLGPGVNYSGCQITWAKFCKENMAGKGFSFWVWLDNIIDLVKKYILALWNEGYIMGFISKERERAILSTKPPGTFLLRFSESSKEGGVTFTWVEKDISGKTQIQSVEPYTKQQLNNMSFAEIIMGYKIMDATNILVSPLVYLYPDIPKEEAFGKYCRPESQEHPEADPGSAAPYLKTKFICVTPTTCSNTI

For the molecule `N#Cc1cccc(C2CN(C(=O)[C@@H]3CC[C@@H]4C[C@H]5C[C@H]5C[C@H](NC(=O)c5cc6cc(C(F)(F)P(=O)(O)O)ccc6s5)C(=O)N43)C2)c1` [Compound 49, ((2-(((3S,6S,7aS,8aR,9aR)-3-(3-(3-cyanophenyl)azetidine-1-carbonyl)-5-oxodecahydro-1H-cyclopropa[d]pyrrolo[1,2-a]azocin-6-yl)carbamoyl)benzo[b]thiophen-5-yl)difluoromethyl)phosphonic acid], the figures for the pIC50 in assay [1] and in assay [2] were over 7.00 and 4.52 to 5.52, respectively.

For the molecule `O=C(N[C@H]1C[C@@H]2C[C@@H]2C[C@H]2CC[C@@H](C(=O)N3CC(c4cnccn4)C3)N2C1=O)c1cc2cc(C(F)(F)P(=O)(O)O)ccc2s1` [Compound 50, (difluoro(2-(((3S,6S,7aS,8aR,9aR)-5-oxo-3-(3-(pyrazin-2-yl)azetidine-1-carbonyl)decahydro-1H-cyclopropa[d]pyrrolo[1,2-a]azocin-6-yl)carbamoyl)benzo[b]thiophen-5-yl)methyl)phosphonic acid], the pIC50 in assay [1] is over 7.00; in assay [2], 4.52 to 5.52.

Turning to `O=C(N[C@H]1C[C@@H]2C[C@@H]2C[C@H]2CC[C@@H](C(=O)N[C@@H]3CCN(c4cccnn4)C3)N2C1=O)c1cc2cc(C(F)(F)P(=O)(O)O)ccc2s1` [Compound 51, (difluoro(2-(((3S,6S,7aS,8aR,9aR)-5-oxo-3-(((R)-1-(pyridazin-3-yl)pyrrolidin-3-yl)carbamoyl)decahydro-1H-cyclopropa[d]pyrrolo[1,2-a]azocin-6-yl)carbamoyl)benzo[b]thiophen-5-yl)methyl)phosphonic acid], the results for the negative-log IC50 (pIC50) in assay [1] and in assay [2] were over 7.00 and 5.52 to 6.52, respectively.

As for `O=C(N[C@H]1C[C@@H]2C[C@@H]2C[C@H]2CC[C@@H](C(=O)N[C@@H]3CCN(c4ccccc4)C3)N2C1=O)c1cc2cc(C(F)(F)P(=O)(O)O)ccc2s1` [Compound 52, (difluoro(2-(((3S,6S,7aS,8aR,9aR)-5-oxo-3-(((R)-1-phenylpyrrolidin-3-yl)carbamoyl)decahydro-1H-cyclopropa[d]pyrrolo[1,2-a]azocin-6-yl)carbamoyl)benzo[b]thiophen-5-yl)methyl)phosphonic acid], the pIC50 in assay [1] is 6.00 to 7.00; in assay [2], 5.52 to 6.52.

Consider `O=C(N[C@H]1C[C@@H]2C[C@@H]2C[C@H]2CC[C@@H](C(=O)NC3CN([C@@H]4CCOC4)C3)N2C1=O)c1cc2cc(C(F)(F)P(=O)(O)O)ccc2s1` [Compound 53, (difluoro(2-(((3S,6S,7aS,8aR,9aR)-5-oxo-3-((1-((R)-tetrahydrofuran-3-yl)azetidin-3-yl)carbamoyl)decahydro-1H-cyclopropa[d]pyrrolo[1,2-a]azocin-6-yl)carbamoyl)benzo[b]thiophen-5-yl)methyl)phosphonic acid], for which the negative logarithm of the IC50 (pIC50) in assay [1] is 6.00 to 7.00; in assay [2], 4.52 to 5.52.

Consider `O=C(N[C@H]1C[C@H]2C[C@H]2C[C@H]2CC[C@@H](C(=O)N3CC(c4c[nH]cn4)C3)N2C1=O)c1cc2cc(C(F)(F)P(=O)(O)O)ccc2s1` [Compound 54, ((2-(((3S,6S,7aR,8aS,9aR)-3-(3-(1H-imidazol-4-yl)azetidine-1-carbonyl)-5-oxodecahydro-1H-cyclopropa[d]pyrrolo[1,2-a]azocin-6-yl)carbamoyl)benzo[b]thiophen-5-yl)difluoromethyl)phosphonic acid], for which the pIC50 is over 7.00 in assay [1] and 5.52 to 6.52 in assay [2].

`Cc1ncccc1C1CN(C(=O)[C@@H]2CC[C@@H]3C[C@@H]4C[C@@H]4C[C@H](NC(=O)c4cc5cc(C(F)(F)P(=O)(O)O)ccc5s4)C(=O)N32)C1` [Compound 55, (difluoro(2-(((3S,6S,7aR,8aS,9aR)-3-(3-(2-methylpyridin-3-yl)azetidine-1-carbonyl)-5-oxodecahydro-1H-cyclopropa[d]pyrrolo[1,2-a]azocin-6-yl)carbamoyl)benzo[b]thiophen-5-yl)methyl)phosphonic acid]: the pIC50 in assay [1] was over 7.00; in assay [2], 4.52 to 5.52.

On to `Cc1ccncc1C1CN(C(=O)[C@@H]2CC[C@@H]3C[C@@H]4C[C@@H]4C[C@H](NC(=O)c4cc5cc(C(F)(F)P(=O)(O)O)ccc5s4)C(=O)N32)C1` [Compound 56, (difluoro(2-(((3S,6S,7aR,8aS,9aR)-3-(3-(4-methylpyridin-3-yl)azetidine-1-carbonyl)-5-oxodecahydro-1H-cyclopropa[d]pyrrolo[1,2-a]azocin-6-yl)carbamoyl)benzo[b]thiophen-5-yl)methyl)phosphonic acid], for which the pIC50 was over 7.00 in assay [1] and 5.52 to 6.52 in assay [2].

On to `O=C(N[C@H]1C[C@@H]2C[C@@H]2C[C@H]2CC[C@@H](C(=O)NC3CN([C@H]4CCOC4)C3)N2C1=O)c1cc2cc(C(F)(F)P(=O)(O)O)ccc2s1` [Compound 57, (difluoro(2-(((3S,6S,7aS,8aR,9aR)-5-oxo-3-((1-((S)-tetrahydrofuran-3-yl)azetidin-3-yl)carbamoyl)decahydro-1H-cyclopropa[d]pyrrolo[1,2-a]azocin-6-yl)carbamoyl)benzo[b]thiophen-5-yl)methyl)phosphonic acid], for which the pIC50 in assay [1] is 6.00 to 7.00; in assay [2] it was 4.52 to 5.52.

Consider `Cc1cccnc1C1CN(C(=O)[C@@H]2CC[C@@H]3C[C@@H]4C[C@@H]4C[C@H](NC(=O)c4cc5cc(C(F)(F)P(=O)(O)O)ccc5s4)C(=O)N32)C1` [Compound 58, (difluoro(2-(((3S,6S,7aR,8aS,9aR)-3-(3-(3-methylpyridin-2-yl)azetidine-1-carbonyl)-5-oxodecahydro-1H-cyclopropa[d]pyrrolo[1,2-a]azocin-6-yl)carbamoyl)benzo[b]thiophen-5-yl)methyl)phosphonic acid], for which the pIC50 in assay [1] was over 7.00; in assay [2], 4.52 to 5.52.

Turning to `O=C(N[C@H]1C[C@H]2C[C@H]2C[C@H]2CC[C@@H](C(=O)N3CC(n4ccnc4)C3)N2C1=O)c1ccc2ccc(C(F)(F)P(=O)(O)O)cc2c1` [Compound 59, ((7-(((3S,6S,7aR,8aS,9aR)-3-(3-(1H-imidazol-1-yl)azetidine-1-carbonyl)-5-oxodecahydro-1H-cyclopropa[d]pyrrolo[1,2-a]azocin-6-yl)carbamoyl)naphthalen-2-yl)difluoromethyl)phosphonic acid], the figures for the pIC50 in assay [1] and in assay [2] were over 7.00 and 4.52 to 5.52, respectively.

For the molecule `Cc1cccc(C2CN(C(=O)[C@@H]3CC[C@@H]4C[C@@H]5C[C@@H]5C[C@H](NC(=O)c5cc6cc(C(F)(F)P(=O)(O)O)ccc6s5)C(=O)N43)C2)n1` [Compound 60, (difluoro(2-(((3S,6S,7aR,8aS,9aR)-3-(3-(6-methylpyridin-2-yl)azetidine-1-carbonyl)-5-oxodecahydro-1H-cyclopropa[d]pyrrolo[1,2-a]azocin-6-yl)carbamoyl)benzo[b]thiophen-5-yl)methyl)phosphonic acid], the pIC50 in assay [1] was over 7.00; in assay [2], 5.52 to 6.52.

Regarding `O=C(N[C@H]1C[C@@H]2C[C@@H]2C[C@H]2CC[C@@H](C(=O)N3CC(c4cncnc4)C3)N2C1=O)c1cc2cc(C(F)(F)P(=O)(O)O)ccc2s1` [Compound 61, (difluoro(2-(((3S,6S,7aS,8aR,9aR)-5-oxo-3-(3-(pyrimidin-5-yl)azetidine-1-carbonyl)decahydro-1H-cyclopropa[d]pyrrolo[1,2-a]azocin-6-yl)carbamoyl)benzo[b]thiophen-5-yl)methyl)phosphonic acid], the pIC50 in assay [1] was over 7.00; in assay [2], 4.52 to 5.52.

For the molecule `N#Cc1ccc(C2(F)CN(C(=O)[C@@H]3CC[C@@H]4C[C@H]5C[C@H]5C[C@H](NC(=O)c5cc6cc(C(F)(F)P(=O)(O)O)ccc6s5)C(=O)N43)C2)cc1` [Compound 62, ((2-(((3S,6S,7aS,8aR,9aR)-3-(3-(4-cyanophenyl)-3-fluoroazetidine-1-carbonyl)-5-oxodecahydro-1H-cyclopropa[d]pyrrolo[1,2-a]azocin-6-yl)carbamoyl)benzo[b]thiophen-5-yl)difluoromethyl)phosphonic acid], the pIC50 in assay [1] was over 7.00; in assay [2] it was 5.52 to 6.52.

On to `O=C(N[C@H]1C[C@H]2C[C@H]2C[C@H]2CC[C@@H](C(=O)NC3CN(C(=O)CCC(F)(F)F)C3)N2C1=O)c1cc2cc(C(F)(F)P(=O)(O)O)ccc2s1` [Compound 63, (difluoro(2-(((3S,6S,7aR,8aS,9aR)-5-oxo-3-((1-(4,4,4-trifluorobutanoyl)azetidin-3-yl)carbamoyl)decahydro-1H-cyclopropa[d]pyrrolo[1,2-a]azocin-6-yl)carbamoyl)benzo[b]thiophen-5-yl)methyl)phosphonic acid], for which the pIC50 in assay [1] was over 7.00; in assay [2], 4.52 to 5.52.
